Assay [1] deals with T1, RORγt (Homo sapiens, UniProt P51449).
T1 sequence (P51449 1-497 isoform P51449-2): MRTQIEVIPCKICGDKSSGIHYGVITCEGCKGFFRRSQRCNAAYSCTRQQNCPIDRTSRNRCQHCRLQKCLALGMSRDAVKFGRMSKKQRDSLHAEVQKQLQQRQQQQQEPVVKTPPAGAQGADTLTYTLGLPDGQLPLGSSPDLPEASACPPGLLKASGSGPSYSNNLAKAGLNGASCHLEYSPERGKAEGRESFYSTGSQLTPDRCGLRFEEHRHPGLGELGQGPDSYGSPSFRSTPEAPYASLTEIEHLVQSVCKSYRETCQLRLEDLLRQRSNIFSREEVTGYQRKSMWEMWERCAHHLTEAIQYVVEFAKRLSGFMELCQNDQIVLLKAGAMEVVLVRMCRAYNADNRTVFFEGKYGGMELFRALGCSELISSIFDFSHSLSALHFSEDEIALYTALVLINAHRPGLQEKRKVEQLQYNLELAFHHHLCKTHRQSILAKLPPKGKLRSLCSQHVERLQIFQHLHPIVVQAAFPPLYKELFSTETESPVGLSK
Briefly: Jurkat reporter test (human IL-17 ROR response element luciferase, RORγt vector). The assay is classed as cell-based. Particulars: read-out: Luminescence level inhibitory rate at test compound 3 μM (%). A digest of the protocol: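 Jurkat cells were electroporated (1350 V, 10 ms, 3 pulses) with reporter constructs, then cultured overnight with compound in RPMI containing 10% lipid-reduced FCS, 10 mM HEPES pH 7.5 and 5 μM lovastatin. Luciferase was quantified by Bright-Glo luminescence after 10 min at room temperature.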

Assay [2] concerns the target T1, RORγt. Briefly: Cofactor recruitment test (Alpha Screen, biotinylated SRC-1 peptide). In kind it is biochemical. Particulars: read-out: Signal value inhibitory rate at test compound 1 μM (%). How it is done:
Cofactor Recruitment Test
Cofactor recruitment test was performed by Alpha Screen (Histidine Detection Kit, PerkinElmer) method. First, a test compound was diluted with an assay buffer (50 mM Tris-HCl (pH 7.5), 50 mM KCl, 1 mM DTT, 0.1% BSA) and added to a 384 well plate by 5 μL. […] The mixture was stood in a dark place for 1 hr, and the signal value was measured by Envision (PerkinElmer).

For assay [3], the target named is T1, RORγt. The experiment in a line: RORγt binding test using fluorescent-labeled cholesterol (TR-FRET). Particulars: read-out: Binding inhibitory rate of fluorescent-labeled cholesterol to RORγt at test compound 1 μM (%). Summed up: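 TR-FRET displacement with His-tagged RORγt, BODIPY-cholesterol and Tb-anti-His antibody in Tris-HCl pH 7.5, 100 mM NaCl, 1 mM DTT, 0.1% BSA. Compound, RORγt and labelled cholesterol were incubated 20 min at RT, then antibody was added for another 20 min.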

The target of assay [4] is T1, RORγt. Briefly: RORγt binding test using fluorescent-labeled synthetic ligand (TR-FRET). Particulars: read-out: Binding inhibitory rate of fluorescent-labeled synthetic ligand to RORγt at test compound 1 μM (%). A digest of the protocol: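 His-tagged RORγt (diluted to 240 nM) with compound, then fluorescent synthetic ligand (diluted to 12 μM), 20 min at room temperature, followed by Tb anti-His antibody (diluted to 8 nM), 20 min.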

The mark [5] stands for this setting: test compound 3 μM, Jurkat cells.

The structures appear in SMILES notation. Like-named read-outs stand apart in the source and are kept apart here.

Take `CC[Si](C)(C)c1c(F)cc(NC(=O)[C@H]2c3ccc(OC)nc3CCN2C(=O)c2cc(O)no2)cc1F` [Example 111, (5R)-N-(4-(ethyl (dimethyl)silyl)-3,5-difluorophenyl)-6-((3-hydroxy-1,2-oxazol-5-yl)carbonyl)-2-methoxy-5,6,7,8-tetrahydro-1,6-naphthyridine-5-carboxamide]: the inhibition at 3 µM on RORγt [1] (Jurkat) amounted to 103%. Moreover, the inhibition at 1 µM on RORγt [2] was found to be 99%; at RORγt [3], 103%; on RORγt [4], 101%.
Turning to `COCc1ccc2c(c1)CCN(C(=O)CCCC(=O)O)[C@H]2C(=O)Nc1ccc([Si](C)(C)C)c(F)c1` [Example 110, 5-((1R)-1-((3-fluoro-4-(trimethylsilyl)phenyl)carbamoyl)-6-(methoxymethyl)-3,4-dihydroisoquinolin-2 (1H)-yl)-5-oxopentanoic acid], the inhibition at 3 µM on RORγt [1] (Jurkat) amounted to 103%. The inhibition at 1 µM at RORγt [2] was found to be 100%; on RORγt [3], 102%; on RORγt [4] it was 102%.
In the case of `COc1ccc2c(c1)CCN(C(=O)c1cc(O)no1)[C@H]2C(=O)Nc1ccc([Si](C)(C)C)c(F)c1` [Example 7, (1R)-N-(3-fluoro-4-(trimethylsilyl)phenyl)-2-((3-hydroxy-1,2-oxazol-5-yl)carbonyl)-6-methoxy-1,2,3,4-tetrahydroisoquinoline-1-carboxamide], the inhibition at 3 µM on RORγt [1] (Jurkat) is 101%. Besides, the values for the inhibition at 1 µM at RORγt [2], at RORγt [3] and on RORγt [4] were 92.8%, 102% and 101%, respectively.
As to `COc1ccc2c(c1)CCN(C(=O)Cc1cc(O)no1)[C@H]2C(=O)Nc1cc(F)c(C(C)(C)C)c(F)c1` [Example 43, (1R)-N-(4-tert-butyl-3,5-difluorophenyl)-2-((3-hydroxy-1,2-oxazol-5-yl)acetyl)-6-methoxy-1,2,3,4-tetrahydroisoquinoline-1-carboxamide], the inhibition at 3 µM on RORγt [1] (setting [5]) amounted to 101%. Also, the inhibition at 1 µM on RORγt [2] turned out to be 88.3%; at RORγt [3] it was 102%; at RORγt [4], 102%.
For `COCc1ccc2c(c1)CCN(C(=O)c1cc(O)no1)[C@H]2C(=O)Nc1cc(F)c([Si](C)(C)C)c(F)c1` [Example 131, (1R)-N-(3,5-difluoro-4-(trimethylsilyl)phenyl)-2-((3-hydroxy-1,2-oxazol-5-yl)carbonyl)-6-(methoxymethyl)-1,2,3,4-tetrahydroisoquinoline-1-carboxamide], the inhibition at 3 µM at RORγt [1] (Jurkat) came out at 103%. Moreover, the inhibition at 1 µM was found to be 100% on RORγt [2], 103% at RORγt [3] and 101% at RORγt [4].
Take `CCOc1ccc2c(c1)CCN(C(=O)Cc1cc(O)no1)[C@H]2C(=O)Nc1ccc(C(C)(C)C)c(F)c1` [Example 67, (1R)-N-(4-tert-butyl-3-fluorophenyl)-6-ethoxy-2-((3-hydroxy-1,2-oxazol-5-yl)acetyl)-1,2,3,4-tetrahydroisoquinoline-1-carboxamide]: the inhibition at 3 µM at RORγt [1] (setting [5]) came to 100%. For the same compound, the inhibition at 1 µM was found to be 87% at RORγt [2], 103% on RORγt [3] and 102% at RORγt [4].
Consider `CCOc1ccc2c(c1)CCN(C(=O)c1cc(O)no1)[C@H]2C(=O)Nc1cc(F)c(C(C)(C)COCC(F)F)c(F)c1` [Example 154, (1R)-N-(4-(1-(2,2-difluoroethoxy)-2-methylpropan-2-yl)-3,5-difluorophenyl)-6-ethoxy-2-((3-hydroxy-1,2-oxazol-5-yl)carbonyl)-1,2,3,4-tetrahydroisoquinoline-1-carboxamide], for which the inhibition at 3 µM on RORγt [1] (setting [5]) amounted to 98%. In addition, the results for the inhibition at 1 µM at RORγt [2], on RORγt [3] and at RORγt [4] were 85%, 101% and 102%, respectively.
For the compound `CC[Si](C)(C)c1c(F)cc(NC(=O)[C@H]2c3ccc(OC)cc3CCN2C(=O)CCCC(=O)O)cc1F` [Example 86, 5-((1R)-1-((4-(ethyl(dimethyl)silyl)-3,5-difluorophenyl)carbamoyl)-6-methoxy-3,4-dihydroisoquinolin-2(1H)-yl)-5-oxopentanoic acid], the inhibition at 3 µM on RORγt [1] (Jurkat) was found to be 101%. Besides, the inhibition at 1 µM was determined as 98% on RORγt [2], 103% at RORγt [3] and 102% at RORγt [4].
As to `COc1ccc2c(c1)CCN(C(=O)Cc1cc(O)no1)[C@H]2C(=O)Nc1cc(F)c(C(C)(C)COCC(F)F)c(F)c1` [Example 159, (1R)-N-(4-(1-(2,2-difluoroethoxy)-2-methylpropan-2-yl)-3,5-difluorophenyl)-2-((3-hydroxy-1,2-oxazol-5-yl)acetyl)-6-methoxy-1,2,3,4-tetrahydroisoquinoline-1-carboxamide], the inhibition at 3 µM at RORγt [1] (setting [5]) is 97%. For the same compound, the results for the inhibition at 1 µM on RORγt [2], on RORγt [3] and on RORγt [4] were 80%, 100% and 101%, respectively.
Take `COCc1ccc2c(c1)CCN(C(=O)Cc1cc(O)no1)[C@H]2C(=O)Nc1ccc(C(C)(C)C)c(F)c1` [Example 132, (1R)-N-(4-tert-butyl-3-fluorophenyl)-2-((3-hydroxy-1,2-oxazol-5-yl)acetyl)-6-(methoxymethyl)-1,2,3,4-tetrahydroisoquinoline-1-carboxamide]: the inhibition at 3 µM on RORγt [1] (setting [5]) turned out to be 104%. In addition, the figures for the inhibition at 1 µM on RORγt [2], at RORγt [3] and on RORγt [4] were 98%, 100% and 102%, respectively.
On the same counts, the results for `COc1ccc2c(c1)CCN(C(=O)CC#N)[C@H]2C(=O)Nc1cc(F)c(C(C)(C)C(=O)N2CCCC2)c(F)c1` [Example 103, (1R)-2-(cyanoacetyl)-N-(3,5-difluoro-4-(2-methyl-1-oxo-1-(pyrrolidin-1-yl)propan-2-yl)phenyl)-6-methoxy-1,2,3,4-tetrahydroisoquinoline-1-carboxamide] are 102%, 101%, 104% and 101%.
The corresponding values for `COc1ccc2c(c1)CCN(C(=O)c1cc(O)no1)[C@H]2C(=O)Nc1ccc(C(C)(C)COCC(F)F)c(F)c1` [Example 75, (1R)-N-(4-(1-(2,2-difluoroethoxy)-2-methylpropan-2-yl)-3-fluorophenyl)-2-((3-hydroxy-1,2-oxazol-5-yl)carbonyl)-6-methoxy-1,2,3,4-tetrahydroisoquinoline-1-carboxamide] are 96%, 78%, 101% and 102%.
Take `COCC(C)(C)c1ccc(NC(=O)[C@H]2c3ccc(OC)cc3CCN2C(=O)c2cc(O)no2)cc1F` [Example 69, (1R)-N-(3-fluoro-4-(1-methoxy-2-methylpropan-2-yl)phenyl)-2-((3-hydroxy-1,2-oxazol-5-yl)carbonyl)-6-methoxy-1,2,3,4-tetrahydroisoquinoline-1-carboxamide]: at RORγt [1] (setting [5]), the inhibition at 3 µM is 100%. The figures for the inhibition at 1 µM on RORγt [2], at RORγt [3] and at RORγt [4] were 83%, 102% and 101%, respectively.
On the same counts, the results for `CCOc1ccc2c(c1)CCN(C(=O)c1cc(O)no1)[C@H]2C(=O)Nc1cc(F)c(C(C)(C)COC)c(F)c1` [Example 163, (1R)-N-(3,5-difluoro-4-(1-methoxy-2-methylpropan-2-yl)phenyl)-6-ethoxy-2-((3-hydroxy-1,2-oxazol-5-yl)carbonyl)-1,2,3,4-tetrahydroisoquinoline-1-carboxamide] are 101%, 97%, 100% and 102%.
As to `CCOc1ccc2c(c1)CCN(C(=O)Cc1cc(O)no1)[C@H]2C(=O)Nc1cc(F)c(C(C)(C)COCCOC)c(F)c1` [Example 143, (1R)-N-(3,5-difluoro-4-(1-(2-methoxyethoxy)-2-methylpropan-2-yl)phenyl)-6-ethoxy-2-((3-hydroxy-1,2-oxazol-5-yl)acetyl)-1,2,3,4-tetrahydroisoquinoline-1-carboxamide], the inhibition at 3 µM at RORγt [1] (setting [5]) stood at 83%. Moreover, the inhibition at 1 µM turned out to be 56% at RORγt [2], 101% on RORγt [3] and 101% at RORγt [4].

The values are drawn from patent publication US10053468B2, “Heterocyclic compound” (TAKEDA PHARMACEUTICAL COMPANY LIMITED, priority 2013, dated 2018).
